From patent publication US10392630B2, “Plants having increased tolerance to herbicides” (BASF AGRO B.V., priority 2013, dated 2019)
Numbering of substitutions follows the chain as printed.

What was measured:
Assay in all cases: biochemical
[1] = molecular target: T1, Amaranthus mutant PPO (AMARE) (Amaranthus tuberculatus, UniProt Q0NZW9, R128L)
T1 sequence (Q0NZW9 1-534 R128L): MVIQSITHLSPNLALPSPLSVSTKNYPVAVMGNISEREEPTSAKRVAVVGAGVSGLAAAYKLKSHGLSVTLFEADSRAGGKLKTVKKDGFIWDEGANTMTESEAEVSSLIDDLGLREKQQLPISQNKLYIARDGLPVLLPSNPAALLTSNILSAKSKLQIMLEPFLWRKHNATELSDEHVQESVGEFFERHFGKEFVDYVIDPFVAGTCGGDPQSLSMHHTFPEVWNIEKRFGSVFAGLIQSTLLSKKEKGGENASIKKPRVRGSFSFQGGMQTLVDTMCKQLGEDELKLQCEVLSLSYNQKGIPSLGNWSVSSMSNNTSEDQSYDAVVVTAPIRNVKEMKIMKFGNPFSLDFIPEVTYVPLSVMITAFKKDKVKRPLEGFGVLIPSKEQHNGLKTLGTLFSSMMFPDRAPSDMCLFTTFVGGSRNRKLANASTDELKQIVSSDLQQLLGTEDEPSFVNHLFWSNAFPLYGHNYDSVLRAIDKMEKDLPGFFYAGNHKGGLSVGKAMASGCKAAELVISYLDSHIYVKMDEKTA

[2] = molecular target: T2, Amaranthus mutant PPO (AMARE) (Amaranthus tuberculatus, UniProt Q0NZW9, R128A)
T2 sequence (Q0NZW9 1-534 R128A): T1 sequence (Q0NZW9 1-534 R128L) with L128A

[3] = molecular target: T3, Amaranthus mutant PPO (AMARE) (Amaranthus tuberculatus, UniProt Q0NZW9, F420M/R128A)
T3 sequence (Q0NZW9 1-534 R128A/F420M): T1 sequence (Q0NZW9 1-534 R128L) with L128A, F420M

[4] = molecular target: T4, Amaranthus mutant PPO (AMARE) (Amaranthus tuberculatus, UniProt Q0NZW9, F420M)
T4 sequence (Q0NZW9 1-534 F420M): T1 sequence (Q0NZW9 1-534 R128L) with L128R, F420M

[5] = molecular target: T5, Amaranthus mutant PPO (AMARE) (Amaranthus tuberculatus, UniProt Q0NZW9, F420I)
T5 sequence (Q0NZW9 1-534 F420I): T1 sequence (Q0NZW9 1-534 R128L) with L128R, F420I

For `CC(C)N(C)S(=O)(=O)NC(=O)c1cc(-n2c(=O)cc(C(F)(F)F)n(C)c2=O)c(F)cc1Cl` [saflufenacil], the IC50 [1] was 222 nM, the IC50 [2] was 129 nM and the IC50 [3] was > 10000 nM. For the same compound, the IC50 [4] was 677 nM and the IC50 [5] was 919 nM.
